Where “and” joins values, the source holds several entries; their conditions need not be identical. Identical values can stand only once.
Columns and labels:
Assay type in all cases: in vivo, human
neurofibromas [1] = experiment: Light microscopy exam (hematoxylin & eosin) of tumors biopsied at day 2; details: ALA-treated tumors, day 2 after PDT
Source text: (§1) (day 2), and 2 to 4 (day 14-28) weeks after light treatment, for evaluation of cutaneous adverse events. At day 2, tumors were biopsied using a punch technique and subjected to light microscopy exam, TUNEL assay (DeadEnd™ Colorimetric TUNEL System, Promega, Madison, WI), and DAPI (4′,6-diamidino-2-phenylindole) staining (ab228549, Abcam, Cambridge, MA). Additional follow-up visits for measurement of lesions were made at periods of 3 months up to one year. See FIG. 1 for a schematic of the study design. The primary outcome for this clinical study was MTD, as measured in the dose escalation using the DLT as defined above. A secondary outcome measured efficacy defined by change in lesion size. The area of the lesion was estimated at baseline and during follow-up visits by measuring the long and short axis of the lesion. Average growth rates were calculated and comparisons made between ALA-treated and placebo lesions within the same subject. The null hypothesis was that there would be no difference in the growth rates of ALA-treated lesions when paired with same-subject placebo lesions. The alternative hypothesis was there would be a difference in the ALA and placebo lesion growth rates.

neurofibroma lesions [2] = experiment: Lesion size and growth rate after PDT treatment
Source text: as §1

neurofibromas [3] = experiment: TUNEL assay for apoptotic cell death in tumors biopsied at day 2; details: all TUNEL evaluated tumor samples, five subjects; p=0.002 vs vehicle
Source text: as §1

[4] = tested on: superficial dermal neurofibromas; experiment: Photosensitizer uptake and conversion: PpIX fluorescence in excised tumors by confocal microscopy
Method: Four adult subjects were enrolled (2 males, 2 females) in part 1. Three tumor groups for each subject consisted of untreated negative controls, tumors treated with drug vehicle only, and ALA (Levulan® Kerastick® Topical Solution, Sun Pharma, Wilmington, MA, USA) treated tumors. Treated tumors were incubated with ALA or vehicle three hours (2 subjects) or overnight (2 subjects), then excised and subjected to fluorescence microscopy studies to measure mean fluorescence indicating PpIX conversion in tumors. Four adult subjects (2 males, 2 females) participated in part 1. Ages ranged from 39 to 67 yrs.
Photosensitizer Uptake: Treated tumors were incubated with ALA or vehicle three hours (2 subjects) or overnight (2 subjects), then excised and subjected to fluorescence microscopy studies to measure mean fluorescence indicating PpIX conversion in tumors. Importantly, ALA delivery for the subjects undergoing overnight incubation was assisted using microneedling (Dermapen®, Salt Lake City, Utah) of the tumors. […] The primary outcome measure was the ratio of mean fluorescence intensity in tumors compared to adjacent normal tissue, as determined by confocal microscopy. PpIX signals were detected with excitation at 405 nm and emission with a 600 nm long pass filter.

neurofibroma lesions [5] = tested on: neurofibroma lesions
Method: Nine adult subjects participated in part 2, four male and five female. Ages ranged from 39 to 69, with a median of 58. For each subject neurofibromalesions were selected for treatment with ALA (3-6 lesions) and vehicle (3-6 lesions) delivered with microneedling. Following an overnight (16-18 hrs.) incubation time, all treated neurofibromas were illuminated with red light at 633 nm and 105 mW/cm^2 (Omnilux Revive® LED illuminator, Photo Therapeutics, Montgomeryville, PA, USA). The dose escalation study included doses of 50, 100 or 200 J/cm^2. Each subject received one single treatment.
Study Design: This study followed a 3+3 Phase I trial design, subjects were treated starting at a dose level of 50 J/cm^2. Dose escalation was performed only after a minimum of three subjects had been evaluated at the current level. If dose-limiting toxicity (DLT) occurred in 1 of 3 subjects, 3 more subjects would be evaluated at that dose level. DLT was defined as pain during irradiation requiring cessation of the light treatment, or any serious cutaneous adverse events, such as erosions or blistering or crusting of the skin. If 0 of these 3 subjects experienced DLT, then the dose was escalated (only one DLT in six subjects). If DLT occurred in 1 of the additional 3 subjects, the […] tolerable dose (MTD) had been exceeded (two DLTs in six subjects) and 3 more subjects would be treated at the next lower dose (if only 3 subjects had been treated previously at that dose). […] The MTD is defined as that dose level immediately below the dose level at which 2 subjects of a cohort (three or six subjects) experience DLT.
as §1

**Q.** Which “Infiltrate on light microscopy” value (neurofibromas [1]) does the source give for NCC(=O)CCC(=O)O [ALA, 5-aminolevulinic acid] here?
**A.** mixed infiltrate consisting of lymphocytes, neutrophils, and rare eosinophils

**Q.** And the Tumor size change (neurofibroma lesions [2]; measured at 2, 4 and 12 weeks after treatment, five subjects)?
**A.** did not show significant change

**Q.** And the “Growth rate ALA” value (neurofibroma lesions [2]; post PDT treatment, individual subjects)?
**A.** −0.073 (0.063) mm^2/day and 0.028 (0.040) mm^2/day and 0.097 (0.103) mm^2/day and 0.375 (00157) mm^2/day and −0.024 (0.030) mm^2/day

**Q.** And the “Difference in growth rates (ALA vs placebo)” value (neurofibroma lesions [2]; post PDT treatment, individual subjects, same-subject placebo lesions)?
**A.** 0.034 mm^2/day and −0.239 mm^2/day and 0.097 mm^2/day and −0.440 mm^2/day and −0.110 mm^2/day

**Q.** And the “Average number of apoptotic cells per visual field” value (neurofibromas [3])?
**A.** 42.5±19.9

**Q.** And the “Fluorescence compared to adjacent normal tissue” value ([4]; microneedled, overnight incubation)?
**A.** significant fluorescence

**Q.** And the “Fluorescence in the apparent tumor zones” value ([4]; topical ALA, incubated 3 hrs., excised tumors from two subjects)?
**A.** no fluorescence

**Q.** What about the “Duration of post inflammatory hyperpigmentation” value (neurofibroma lesions [5]; ALA-PDT treated NF lesions) of the same compound?
**A.** up to 3 months

**Q.** What about the “Time by which edema and redness subsided” value (neurofibroma lesions [5]; ALA-PDT treated NF lesions) of the same compound?
**A.** ≤ 2 days

**Q.** And the “Blister formation, erosion or crusting” value (neurofibroma lesions [5]; human, in vivo)?
**A.** no blister formation, erosion or crusting

**Q.** And the “Erythema and edema around lesions” value (neurofibroma lesions [5]; human, in vivo)?
**A.** marked erythema and edema

**Q.** And the “MTD (light dose)” value (neurofibroma lesions [5]; human, in vivo)?
**A.** 100 J/cm^2

**Q.** And the “Pain and discomfort induced by red light treatment” value (neurofibroma lesions [5]; human, in vivo)?
**A.** marked pain and discomfort

**Q.** And the “Subjects with DLT (pain requiring cessation of the light treatment)” value (neurofibroma lesions [5]; human, in vivo)?
**A.** One subject

**Q.** What about the “Duration of erythema and edema” value (neurofibroma lesions [5]; red light 105 mW/cm^2, 50 or 100 J/cm^2) of the same compound?
**A.** at least 48 hrs.

— patent publication US12708791B2, “Management of dermal neurofibromatosis lesions” (Sun Pharmaceutical Industries, Inc., priority 2020, dated 2026)
